From ChEMBL document CHEMBL3039007, “Structure-based identification of OATP1B1/3 inhibitors” (Mol Pharmacol, 2013)
Residues, ends and D or L forms follow the SMILES beside them. *: point of attachment. For = O=C*

Experiments:
[1] = target: T1, Solute carrier organic anion transporter family member 1B3 (Homo sapiens, UniProt Q9NPD5); details: chinese hamster, cho, 10 µM
T1 sequence (Q9NPD5 whole entry): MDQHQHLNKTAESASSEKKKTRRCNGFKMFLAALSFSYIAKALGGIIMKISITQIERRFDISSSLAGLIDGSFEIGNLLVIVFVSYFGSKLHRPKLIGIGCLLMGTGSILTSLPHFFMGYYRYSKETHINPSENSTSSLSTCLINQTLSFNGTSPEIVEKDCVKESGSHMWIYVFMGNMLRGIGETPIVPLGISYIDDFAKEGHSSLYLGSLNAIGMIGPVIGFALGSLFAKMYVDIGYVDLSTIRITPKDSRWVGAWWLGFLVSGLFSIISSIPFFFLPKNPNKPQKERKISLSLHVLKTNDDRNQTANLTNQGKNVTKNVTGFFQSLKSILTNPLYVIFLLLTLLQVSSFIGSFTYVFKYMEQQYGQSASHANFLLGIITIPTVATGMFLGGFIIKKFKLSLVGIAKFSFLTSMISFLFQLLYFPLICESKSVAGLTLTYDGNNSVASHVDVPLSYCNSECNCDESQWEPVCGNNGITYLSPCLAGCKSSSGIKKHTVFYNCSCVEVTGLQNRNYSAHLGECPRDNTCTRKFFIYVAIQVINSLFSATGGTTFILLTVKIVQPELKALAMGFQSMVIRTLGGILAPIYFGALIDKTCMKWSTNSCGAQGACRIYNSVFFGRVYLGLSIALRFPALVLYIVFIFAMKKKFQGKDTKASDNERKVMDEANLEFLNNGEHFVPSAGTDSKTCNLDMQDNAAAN

[2] = target: T2, Solute carrier organic anion transporter family member 1B1 (Homo sapiens, UniProt Q9Y6L6); details: chinese hamster, cho, 10 µM
T2 sequence (Q9Y6L6 whole entry): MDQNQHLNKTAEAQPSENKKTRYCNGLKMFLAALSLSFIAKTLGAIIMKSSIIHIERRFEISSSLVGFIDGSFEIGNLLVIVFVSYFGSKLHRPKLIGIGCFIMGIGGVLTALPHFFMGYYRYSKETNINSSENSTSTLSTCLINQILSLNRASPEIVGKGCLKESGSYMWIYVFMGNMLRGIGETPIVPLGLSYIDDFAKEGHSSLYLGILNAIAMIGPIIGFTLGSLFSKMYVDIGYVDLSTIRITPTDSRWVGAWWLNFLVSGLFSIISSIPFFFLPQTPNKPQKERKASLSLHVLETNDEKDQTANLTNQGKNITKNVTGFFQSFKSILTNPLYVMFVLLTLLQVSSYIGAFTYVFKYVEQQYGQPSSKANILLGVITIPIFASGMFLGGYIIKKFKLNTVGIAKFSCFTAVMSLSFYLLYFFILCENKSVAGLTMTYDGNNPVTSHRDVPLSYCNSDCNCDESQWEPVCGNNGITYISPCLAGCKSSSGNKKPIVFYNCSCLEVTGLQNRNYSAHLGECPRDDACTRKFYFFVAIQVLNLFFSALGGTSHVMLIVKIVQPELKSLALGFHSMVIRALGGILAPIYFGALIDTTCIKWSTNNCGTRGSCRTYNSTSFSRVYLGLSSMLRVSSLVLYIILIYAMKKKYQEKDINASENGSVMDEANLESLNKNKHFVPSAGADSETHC

SMILES	residual activity [1] [%]	residual activity [2] [%]
CSCC[C@H](NC=O)C(=O)N[C@@H](Cc1ccccc1)C(=O)O (For-Met-Phe-OH)	104.4	38.77
CC(C)C[C@H](NC(=O)CN)C(=O)N[C@@H](Cc1ccccc1)C(=O)O (H-Gly-Leu-Phe-OH)	114.9	118.4
CC1=CC(=O)CC(C)(C)C1(O)/C=C/C(C)=C\C(=O)O (racemic) [ABSCISIC ACID]	92.91	70.85
CC(C)CC(NC(=O)C(C)N)C(=O)O (racemic) [ALANYL-dl-LEUCINE]	98.55	111.6
CC(N)C(=O)NC(Cc1ccccc1)C(=O)O (racemic) [ALANYL-dl-PHENYLALANINE]	75.84	90.94
COc1ccc(C2COc3cc(O)ccc3C2)c(OC)c1O (racemic) [MUCRONULATOL(+/-)]	87.73	87.17
NC(C(=O)O)C(O)C(=O)O (racemic) [d,l-threo-3-HYDROXYASPARTIC ACID]	82.91	70.17
CC(C)CC(NC(=O)OCC1c2ccccc2-c2ccccc21)C(=O)O (single isomer, unassigned) [N- (9-FLUORENYLMETHOXYCARBONYL)-L-LEUCINE]	48.34	32.48
C=CCCCCCCCCCCCC(O)CC(O)CO (stereo in doubt; form 1) [AVOCADENE]	100.3	107.8
C=CCCCCCCCCCCCC(O)CC(O)CO (stereo in doubt; form 2) [AVOCADENE]	104.3	99.03
CNNC.Cl [1,2-DIMETHYLHYDRAZINE HYDROCHLORIDE]	99.77	108.5
COc1cc(OC)cc(OC)c1 [1,3,5-TRIMETHOXYBENZENE]	68.6	90.48
CCCn1c(=O)c2[nH]c(C3CCCC3)nc2n(CCC)c1=O [1,3-DIPROPYL-8-CYCLOPENTYLXANTHINE [DPCPX]]	117.3	264.1
Cc1cc(O)c2c(c1O)C(=O)c1c(O)cc(C)c(O)c1C2=O [1,4,5,8-TETRAHYDROXY-2,6-DIMETHYLANTHROQUINONE]	105.2	102.7
Clc1ccc(Cl)cc1 [1,4-DICHLOROBENZENE]	96.49	99.98
NC1(C(=O)O)CCC1 [1-AMINOCYCLOBUTANE CARBOXYLIC ACID]	95.93	131.1
NC1(C(=O)O)CC1 [1-Aminocyclopropane carboxylic acid]	99.32	125.9
Cn1c(=O)[nH]c2nc[nH]c2c1=O [1-METHYLXANTHINE]	96.5	102.1
Cl.N=C(N)NC(=N)Nc1ccccc1 [1-PHENYLBIGUANIDE HYDROCHLORIDE]	94.41	80.12
COc1ccc2c(c1OC)C(=O)O[C@H]2[C@H]1c2cc3c(cc2CCN1C)OCO3 [1R,9S-HYDRASTINE]	84.49	94.94
O=C(/C=C/c1ccccc1)c1ccc(O[C@@H]2O[C@H](CO)[C@@H](O)[C@H](O)[C@H]2O)cc1O [2',4'-DIHYDROXYCHALCONE 4'-GLUCOSIDE]	107.4	99.51
O=C(/C=C(\O)c1ccccc1)c1ccccc1O [2',beta-DIHYDROXYCHALCONE]	97.75	95.04
COc1ccc(-c2coc3cc(O)ccc3c2=O)c(OC)c1 [2'-METHOXYFORMONETIN]	83.66	74.56
COc1ccc(C(=O)c2ccc(O)cc2)c(O)c1O [2,3,4'-TRIHYDROXY-4-METHOXYBENZOPHENONE]	112.1	114.8

SMILES	residual activity [1] [%]	residual activity [2] [%]
CCOc1ccc(C(=O)c2ccc(O)c(O)c2O)cc1 [2,3,4-TRIHYDROXY-4'-ETHOXYBENZOPHENONE]	99.48	134.1
CCOc1ccc(C(=O)c2ccc(OC)c(O)c2O)cc1 [2,3-DIHYDROXY-4-METHOXY-4'-ETHOXYBENZOPHENONE]	102.2	172.8
O=C(O)c1cccc(O)c1O [2,3-DIHYDROXYBENZOIC ACID]	84.74	94.43
COC(=O)COc1cc(Cl)c(Cl)cc1Cl [2,4,5-TRICHLOROPHENOXYACETIC ACID, METHYL ESTER]	116.4	98.01
O=C(O)COc1cc(Cl)c(Cl)cc1Cl [2,4,5-TRICHLOROPHENOXYACETIC ACID]	96.75	95.54
CC(=O)c1c(O)cc(O)cc1O [2,4,6-TRIHYDROXYACETOPHENONE]	92.98	72.12
COC(=O)COc1ccc(Cl)cc1Cl [2,4-DICHLOROPHENOXYACETIC ACID, METHYL ESTER]	110	116.2
O=C(O)COc1ccc(Cl)cc1Cl [2,4-DICHLOROPHENOXYACETIC ACID]	104.1	111.6
O=[N+]([O-])c1ccc(O)c([N+](=O)[O-])c1 [2,4-DINITROPHENOL]	78.36	75.05
COc1cc(O)c(C)c(O)c1 [2,6-DIHYDROXY-4-METHOXYTOLUENE]	91.69	108.8
COC1=CC(=O)C=C(OC)C1=O [2,6-DIMETHOXYQUINONE]	101.9	115.1
COc1cccc(OC)c1OCCNCC1COc2ccccc2O1.Cl (stereo unspecified) [2- (2,6-DIMETHOXYPHENOXYETHYL)AMINOMETHYL-1,4-BENZODIOXANE HYDROCHLORIDE (WB 4101)]	96.02	247.1
CC(=O)c1ccc[nH]1 [2-ACETYLPYRROLE]	98.29	111.7
COC1=CC(=O)C(C(=O)c2ccccc2)=CC1=O [2-BENZOYL-5-METHOXYBENZOQUINONE]	165.6	106.8
CCOC(=O)C(=O)C1(C(=O)OCC)Oc2cc(OC)cc(OC)c2C(=O)C1c1ccccc1 (stereo unspecified) [2-ETHOXYCARBONYL-2-ETHOXYOXALOYLOXYDIHYDROCHRYSIN DIMETHYL ETHER]	100.5	117
CCOC(=O)C1(O)Oc2cc(OC)cc(OC)c2C(=O)C1c1ccccc1 (stereo unspecified) [2-ETHOXYCARBONYL-2-HYDROXY-5,7-DIMETHOXYISOFLAVANONE]	104	106.9
COc1ccc(C(=O)O)c(O)c1OC [2-HYDROXY-3,4-DIMETHOXYBENZOIC ACID]	82.78	82.39
CC1(C)CC2C1CCC1(C)OC1CCC2(C)O (stereo unspecified) [2-HYDROXY-5 (6)EPOXY-TETRAHYDROCARYOPHYLLENE]	86.53	70.41
CC(C)=CCc1c(O)cc(C)oc1=O [2-ISOPRENYL-3-HYDROXY-5-METHYL-a-PYRONE]	115.1	101.1
COc1cccc(/C=C/C(=O)O)c1C(C)C [2-ISOPROPYL-3-METHOXYCINNAMIC ACID]	87.92	137.6
Sc1nc2ccccc2s1 [2-MERCAPTOBENZOTHIAZOLE]	97.95	158.6
COC1(C)CCC2OC2(C)CCC2C1CC2(C)C (stereo unspecified) [2-METHOXY-5 (6)EPOXY-TETRAHYDROCARYOPHYLLENE]	93.07	92.29
COc1c(O)cccc1O [2-METHOXYRESORCINOL]	98.72	95.14
Cc1[nH]c2ccccc2c1CN(C)C [2-METHYL GRAMINE]	80.09	39.17
